Laboratory results taken from patent publication US20120301551A1, “COMPOUNDS AND COMPOSITIONS FOR TREATING NEURONAL DEATH OR NEUROLOGICAL DYSFUNCTION” (Neurotech Pharmaceuticals Co., Ltd., priority 2005, published 2012).

Columns and labels:
[1] = system: neuron-rich cortical cell cultures; assay: serum deprivation-induced neuronal cell apoptosis; type: cell-based, mouse; conditions: 24 hr, 5 mM Li^+, 100 μM zVADfmk, 1 μM 2-hydroxy TTBA
Experimental: (B) Neuron-rich cortical cell cultures (DIV 7) were deprived of serum, alone or with addition of 100 μM zVADfmk, 1 μM 2-hydroxy TTBA, or 5 mM Li^+. Neuronal death was analyzed 24 hr later by counting viable neurons excluding trypan (mean±SEM, n=4). *, Significant difference from the relevant control (serum deprivation alone), p<0.05 using ANOVA and Student-Neuman-Keuls test. (C) Western blot analysis of FADD antibody following immunoprecipitation with Fas antibody in the same samples above.
Additional experiments were performed to examine if targeting both neuronal cell necrosis and apoptosis would result in synergic neuroprotection in […] transgenic mice. […] Neuronal cell apoptosis was induced by serum deprivation in neuron-rich cortical cell cultures as reported, which was prevented by addition of 5 mM Li^+ as well as zVADfmk, a broad spectrum inhibitor of caspases (FIG. 5B). […] Additional experiments were performed to examine if Li^+ would prevent Fas signaling pathway. […] This implies that 2-Hydroxy-TTBA and Li^+ blocks oxidative neuronal cell necrosis and apoptosis, respectively.

[2] = system: gastric mucous membrane; assay: gastric mucous membrane damage after oral administration; type: in vivo; conditions: 1,000 mg/kg orally administered
Experimental: FIG. 10 is results showing degrees of the gastric mucous membrane damage. Test samples were orally administered in a different dose. […] Aspirin was used as control.
Conventional NSAIDs have side effects causing damages to the gastric mucous membrane. Therefore, it was evaluated whether chemical 01 having anti-inflammatory effect causes the gastric damage or not. 30, 100 or 300 mg/kg of aspirin was orally administered as control.

[3] = system: mesencephalic nerve cell cultures; assay: dopaminergic nerve cell death by LPS in mesencephalic cultures ([3H]DA uptake); type: cell-based; conditions: 5 ng/ml LPS; 0-100 uM; 7 days
Experimental: Mesencephalic nerve cell cultures were pre-treated with 5 ng/ml of LPS for 30 minutes to make a cull culture model of Parkinson's disease, and then 0-100 uM of chemical 01 were added. 7 days after administration, [^3H]DA uptake was evaluated to quantify the death of the nerve cell (mean±SEM, n=4 culture well/each group).

[4] = hydroxyl radical scavenging in test tube; type: biochemical
Experimental: In addition, scavenging effects of superoxide and hydroxyl radical in test tube were evaluated. Hydroxyl radical scavenging activities of 0.1 uM, 1 uM and 10 uM of chemical 01 were 13.35%, 33.33% and 71.72%, respectively.

[5] = system: Tg2576 transgenic mice; assay: amyloid plaque burden in Tg2576 transgenic mice (Thioflavin-S); type: in vivo, mouse
Experimental: […] 18˜20 um brain cryo-sections were stained with 1% Thioflavin-S for 5 minutes and observed under fluorescence microscope system. Amyloid plaque burden/brain was quantified with MetaVue Image software (mean±SEM, n=2).
[…] 18˜20 μm brain sections stained 1% Thioflavin-S for 5 min and observed under fluorescence microscope system.

[6] = system: reactive oxygen species (ROS) in cortical cell cultures; assay: ROS production in cortical cell cultures exposed to FeCl2 (DCF fluorescence); type: cell-based; conditions: 1 uM; 50 uM FeCl2
Experimental: It was evaluated whether chemical 01 suppresses reactive oxygen species (ROS) increased by FeCl2. Cortical cell cultures (DIV 11-14) were continuously exposed to 50 uM FeCl2 alone or with inclusion of 1 uM of chemical 01. Then, the fluorescent intensity of 6-carboxy-2′,7′-dichlorofluorescin diacetate (oxidation product of DCDHF-DA) was evaluated (mean±SEM, n=3).

[7] = system: APPswe/PS1deltaE9 double transgenic mice; assay: elevated plus maze in APPswe/PS1deltaE9 double transgenic mice; type: in vivo, mouse; conditions: 25 mg/kg/day for 14.5 months (3~17.5 months)
Experimental: After administration of 14.5 months, Elevated plus maze test was performed to evaluate the behavior improvement like example 10-3-2 (mean±SEM, n=3-5).
(§1) 17.5 month-old APPswe/PS1deltaE9 double transgenic mice were fed chow alone (saline only), or containing 25 mg/kg/day of chemical—01, for […] (3˜17.5 month).
The anxiety function was analyzed by elevated plus maze test. The time spent in the open arm was recorded in the elevated plus maze.

[8] = system: APPswe/PS1deltaE9 double transgenic mice; assay: open field activity in APPswe/PS1deltaE9 double transgenic mice; type: in vivo, mouse; conditions: 25 mg/kg/day chemical 01 or 62.5 mg/kg/day ibuprofen for 14.5 months (3~17.5 months)
Experimental: After administration of drug for 14.5 months, Open field activity test was performed to evaluate locomotor activity and exploratory behavior. 4×4 of scale marks were drawn in white acryl box having a size of 60 cm×60 cm×35 cm (width×length×height) to make sixteen squares. Four squares in the center became center zone and twelve squares around the center zone became peripary zone. Mice were laid into transparent acryl tube (diameter: about 3.5 inches) laid at the left corner of the acryl box for 30 seconds. After 30 seconds, acryl tube was removed to make mouse free. Experiment was once performed for each mouse for 5 minutes. The distance traveled in the open field was recorded (mean±SEM, n=3-5).
as §1
Open field activity was used to evaluate locomotor activity and exploratory behavior. The distance traveled in the open field was recorded and performance was analyzed after the testing took place.

[9] = system: APPswe/PS1deltaE9 double transgenic mice; assay: amyloid plaque burden in APPswe/PS1deltaE9 double transgenic mice (Thioflavin-S); type: in vivo, mouse
Experimental: The treatment with 25 mg/kg/day of chemical 01 for 7 months (from 3.5 to 10.5 month-old APP/PS1) caused a significant 53% reduction in amyloid plaque burden compared to APP/PS1 dementia mouse fed with general chow only.
10.5 month-old APPswe/PS1deltaE9 double transgenic mice were fed chow alone (saline only), or containing 25 mg/kg/day of chemical—01, for 7.5 months before being sacrificed (3˜10.5 month). 18-20 μm brain sections stained 1% Thioflavin-S for 5 min and observed under fluorescence microscope system.

| SMILES | serum deprivation-induced neuronal cell apoptosis, effect in words [1] | serum deprivation-induced neuronal cell apoptosis, effect in words ([1]; listed as 2-hydroxy TTBA) | gastric side effect (damage of the gastric mucous membrane) [2] | gastric side effect (damage of the gastric mucous membrane) ([2]; listed as Chemical 01) | dopaminergic nerve cell death caused by LPS [3] | IC50 [4] [nM] | hydroxyl radical scavenging activity ([4]; 0.1 uM) [%] | hydroxyl radical scavenging activity ([4]; 1 uM) [%] | hydroxyl radical scavenging activity ([4]; 10 uM) [%] | amyloid plaque burden, in words ([5]; 25 mg/kg/d for 8 months (9~17 month)) | reduction of amyloid plaque burden compared to control ([5]; 25 mg/kg/day in chow for 8 months (9~17 months)) [%] | reduction in plaque burden ([5]; 100 mg/kg/day for 6 months (from 6 to 12 months)) [%] | production of ROS in cell increased by FeCl2 [6] | time spent in the open arm [7] | time spent in the open arm ([7]; listed as chemical—01) | open field activity (distance traveled) [8] | reduction in amyloid plaque burden ([9]; 25 mg/kg/day for 7 months (from 3.5 to 10.5 month-old)) [%] | reduction in plaque burden ([9]; 25 mg/kg/day for 7.5 months (3~10.5 month)) [%] | reduction in amyloid plaque burden ([9]; 25 mg/kg/day, from 8.5 to 12.5 month-old (4 months)) [%] |
| --- | --- | --- | --- | --- | --- | --- | --- | --- | --- | --- | --- | --- | --- | --- | --- | --- | --- | --- | --- |
| O=C(O)c1cc(NCc2c(F)c(F)c(C(F)(F)F)c(F)c2F)ccc1O [2-Hydroxy-TTBA, 2-hydroxy-5-(2,3,5,6-tetrafluoro-4-trifluoromethyl-benzylamino)-benzoic acid] | not attenuated | not | – | – | – | – | – | – | – | – | – | – | – | – | – | – | – | – | – |
| O=C(O)c1cc(NCCc2ccc(C(F)(F)F)cc2)ccc1O [chemical 01, 2-Hydroxy-5-[2-(4-trifluoromethyl-phenyl)-ethylamino]-benzoic acid] | – | – | did not cause damage of the gastric mucous membrane | did not cause the gastric side effect | dose-dependent manner | 970 | 13.35 | 33.33 | 71.72 | reduced significantly | 39.2 | 62 | suppressed | decreased the time | spent less time | reduced significantly | 53 | 53.4 | 49.3 |
